Patent US12171777B2, “Methods of making a cyclic dinucleotide” (TAKEDA PHARMACEUTICAL COMPANY LIMITED, priority 2016, dated 2024)
Structures can show the parent of a compound that is named as a salt.

How the values were obtained:
[1] = Human plasma stability assay; format: in vitro ADME; conditions: elimination rate constant k; heparinized human plasma, 37° C., 0-24 hours
Procedure: The compound was incubated in heparinized human plasma at 37° C. for 0, 1, 2, 4, 8 and 24 hours, and the change in compound concentration was measured by LC/MS/MS method. The elimination rate constant (=k(/h)) was calculated based on the fitted curve assuming the exponential decrease of concentration as follows; concentration at time x=initial concentration*exp(−k*x).

B16F10 mouse tumor cells = experiment: Anti-tumor effect in B16F10 syngeneic mice model; format: in vivo; conditions: C57BL/6 mice; intravenous q3dx3; Ex3a 30 mg/kg, Ex14 1.0 mg/kg
Procedure: (§1) Ex14 and Ex3a were tested in syngeneic tumor models in mice. […] See FIG. 8 and FIG. 9 for the anti-tumor effect colon carcinoma CT-26 syngeneic mice model, and FIG. 10 and FIG. 11 for the anti-tumor effect in the […] B16F10 syngeneic mice model.
(§2) 8×10^4 B16F10 and 2×10^5 CT-26 mouse tumor cells were subcutaneously implanted in the flank of female C57BL/6 (B16F10) and Balb/C (CT-26) mice (n=7 per group). Vehicle (1×PBS), compound Ex3a (30 mg/kg) or Ex14 (1.0 mg/kg) were intravenously administered (final volume of 100 μL) to tumor-bearing mice once the tumor volume has reached 100 mm^3 (Day 0). Vehicle, Ex3a or Ex14 were given every 3 days for a total of 3 doses (q3dx3). Tumor and body weight measurements were taken three times per week using vernier calipers and mettler scale, respectively. Tumor volumes were determined by multiplying the square of the width (‘W’), measured along the short axis of the tumor, by one-half the length (‘L’) measured along the […]

CT-26 mouse tumor cells = experiment: Anti-tumor effect in CT-26 syngeneic mice model; format: in vivo; conditions: Balb/C mice; intravenous q3dx3; Ex3a 30 mg/kg, Ex14 1.0 mg/kg
Procedure: as §1, §2

[2] = molecular target: WT STING (human wild-type TMEM173 (H232R)) (Homo sapiens (Human), UniProt Q86WV6, H232R); experiment: Reporter Gene Assay (2): ISRE NanoLuc reporter in STING-transfected 293T cells, with digitonin; format: cell-based; conditions: HEK-293T, 2′,3′-cGAMP (30 μM) = 100%, solvent = 0%, read-out: activity level against WT STING of test compound (30 μM)
WT STING (human wild-type TMEM173 (H232R)), sequence (Q86WV6 whole entry H232R): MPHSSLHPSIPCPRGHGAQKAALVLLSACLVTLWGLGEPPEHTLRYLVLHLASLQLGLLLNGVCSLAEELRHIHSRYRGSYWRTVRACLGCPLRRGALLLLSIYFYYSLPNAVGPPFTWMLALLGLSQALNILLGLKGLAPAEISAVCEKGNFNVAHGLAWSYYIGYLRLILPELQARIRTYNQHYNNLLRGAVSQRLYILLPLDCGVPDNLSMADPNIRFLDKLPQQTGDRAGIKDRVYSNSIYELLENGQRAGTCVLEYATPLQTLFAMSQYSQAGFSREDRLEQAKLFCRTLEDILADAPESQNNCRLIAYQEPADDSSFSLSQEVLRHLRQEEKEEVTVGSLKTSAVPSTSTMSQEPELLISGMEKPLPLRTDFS

| Human plasma stability [1] | activation at 30 µM [2] | SMILES | anti-tumor effect, B16F10 syngeneic mice model (B16F10 mouse tumor cells) | anti-tumor effect, CT-26 syngeneic mice model (CT-26 mouse tumor cells) |
| --- | --- | --- | --- | --- |
| 0.58 h⁻¹ | – | Nc1ncnc2c1ncn2[C@@H]1O[C@@H]2COP(=O)(O)O[C@@H]3[C@H](O)[C@@H](COP(=O)(S)O[C@H]2[C@H]1F)O[C@H]3n1cc(F)c2c(=O)[nH]cnc21 (stereo partly drawn) [Ex3a, disodium (5R,7R,8R,12aR,14R,15R,15aR,16R)-14-(6-amino-9H-purin-9-yl)-15-fluoro-7-(5-fluoro-4-oxo-3,4-dihydro-7H-pyrrolo[2,3-d]pyrimidin-7-yl)-16-hydroxy-2-sulfidooctahydro-12H-5,8-methanofuro[3,2-1][1,3,6,9,11,2,10]pentaoxadiphosphacyclotetradecin-10-olate 2,10-dioxide] | anti-tumor effects were observed | anti-tumor effects were observed |
| <0.01 h⁻¹ | 107% | Nc1ncnc2c1ncn2[C@@H]1O[C@@H]2COP(=O)(S)O[C@@H]3[C@H](O)[C@@H](COP(=O)(S)O[C@H]2[C@H]1O)O[C@H]3n1cc(F)c2c(=O)[nH]cnc21 (stereo partly drawn) [Example 5, 7-((5R,7R,8R,12aR,14R,15R,15aS,16R)-14-(6-amino-9H-purin-9-yl)-15,16-dihydroxy-2,10-dioxido-2,10-disulfanyloctahydro-12H-5,8-methanofuro[3,2-1][1,3,6,9,11,2,10]pentaoxadiphosphacyclotetradecin-7-yl)-5-fluoro-3,7-dihydro-4H-pyrrolo[2,3-d]pyrimidin-4-one di-triethylamine salt (Optical Isomer)] | – | – |
| <0.01 h⁻¹ | – | Nc1ncnc2c1ncn2[C@@H]1O[C@@H]2COP(=O)(S)O[C@@H]3[C@H](O)[C@@H](COP(=O)(S)O[C@H]2[C@H]1F)O[C@H]3n1cc(F)c2c(=O)[nH]cnc21 (stereo partly drawn) [Example 14, 7-((2R,5R,7R,8R,10R,12aR,14R,15R,15aR,16R)-14-(6-amino-9H-purin-9-yl)-15-fluoro-16-hydroxy-2,10-dioxido-2,10-disulfanyloctahydro-12H-5,8-methanofuro[3,2-1][1,3,6,9,11,2,10]pentaoxadiphosphacyclotetradecin-7-yl)-5-fluoro-3,7-dihydro-4H-pyrrolo[2,3-d]pyrimidin-4-one di sodium salt] | anti-tumor effects were observed | anti-tumor effects were observed |
